Assay [1] deals with T1, PfPolδ-cat (Plasmodium falciparum, UniProt P30315).
T1 construct: The 3285-bp full-length PfPolδ-cat of P. falciparum K1 strain was successfully amplified and cloned; thioredoxin (N); His6 (C); made in house; host or cells: Escherichia coli LMG194
Put plainly: DNA polymerase assay, inhibitory effects of compounds on PfPolδ-cat activity. Type of assay: biochemical. The method, then:
DNA polymerase activity was assayed using activated calf thymus DNA (CT-DNA) (Sigma-Aldrich, MA, USA) as substrate. DNA polymerase assay was conducted in a 50-μl reaction mixture containing 10 μg of activated CT-DNA, 20 mM potassium phosphate buffer pH 8, 10 mM MgCl2, 2 mM DTT, 10 μg BSA, 50 μM each of dGTP, dATP and dCTP, 1 μM dTTP, 2.5 μM [α-^32P]dTTP (800 Ci/mmol; PerkinElmer, MA, USA), and 42 nM PfPolδ-cat. After incubation for 1 h at 37 °C, the reactions were terminated by adding a 250-μl mixture of 20 mM EDTA, 0.1 mg/ml BSA and 100 μl of 50 % trichloroacetic acid (TCA), followed by sedimentation. The precipitate was then washed twice with 1 % TCA and [^32P]dTMP incorporation was measured in a 1450 MicroBeta® Trilux Liquid Scintillation Counter (Perkin Elmer). One unit of DNA polymerase activity is defined as the amount of enzyme that catalyzes the incorporation of 1 nmol of dTMP into DNA in 1 h at 37 °C.
Inhibitory activity of 11 compounds consisting of substrate and nucleotide analogs and potential active site occupiers of PfPolδ-cat were compared with known Pol δ inhibitors, aphidicolin and N-ethylmaleimide (NEM). Stock solution (6 mM) of aphidicolin was prepared in dimethylsulfoxide (DMSO) and that of NEM (400 mM) in absolute ethanol. Stock solutions (10 mM) of N^2-(4-butylphenyl)-2′-deoxyguanosine 5′-triphosphate (BuPdGTP), N^2-(4-butylphenyl)- 2′-deoxyguanosine 5′-(P^2,P^3-carbonyltriphosphonate) (BuPdGMPPCOP), N^2-ethyl-2′-deoxyguanosine 5′-[…] (EtdGTP), N^2-hexyl-2′-deoxyguanosine 5′-triphosphate (HexdGTP) and Acyclovir triphosphate (ACV-TP) were prepared in sterile distilled water, while those of 2-amino-4-chloro-6-(3,4-dichloroanilino)pyrimidine, 2-amino-4-chloro-6-(3,5-dichloroanilino)pyrimidine, N^2-(3,4-dichlorobenzyl)guanine (DCBG), N^2-(3-fluoro,4-chlorobenzyl)guanine, 3-(4-hydroxybutyl)-6-(3-ethyl-4-methylanilino)uracil (HB-EMAU), and 7-acetoxypentyl-(3,4-dichlorobenzyl)guanine (7-acetoxypentyl-DCBG) were prepared in DMSO. All stock solutions were stored at −20 °C until used. Test concentrations of compounds were prepared by diluting stock solution with 10 mM Tris–HCl pH 8.0 and evaluated in triplicate. Compounds were added directly to the reaction mixtures except for NEM that was pre-incubated with enzyme for 30 min on ice before addition to the reaction mixture. Polymerase activity assays were conducted as described above.

Assay [2] concerns Plasmodium falciparum K1 strain. Put plainly: Inhibition of intra-erythrocytic P. falciparum growth in culture (SYBR Green I-based assay). Format: cell-based. Conditions: K1 strain (chloroquine- and pyrimethamine-resistant), in vitro growth, triplicate. As to the method:
Plasmodium falciparum strain K1, a chloroquine- and pyrimethamine-resistant strain from Thailand [28] was cultivated in RPMI 1640 medium (Invitrogen™, CA, USA) supplemented with 10 % human serum and human red blood cell (RBC) at 37 °C under an atmosphere of 5 % CO2. Plasmodium falciparum cultures containing mostly trophozoite and schizont stages were harvested when parasitaemia was >10 % by centrifugation at 500×g for 10 min at 25 °C.
Plasmodium falciparum K1 strain was synchronized at ring stage using 5 % D-sorbitol treatment and then mixed with culture medium containing RPMI 1640 medium supplement with 10 % human serum. Twofold serial dilutions of each test compound were evaluated in triplicate. Parasite growth was determined by a SYBR Green I-based assay. Dose–response curves and IC50 values were obtained using SigmaPlot 12.0.

On the set-up of assay [3]: method as in PMID 21684746. As to conditions: potent antibiotic; cited from earlier work.
On the set-up of assay [4]: method as in PMID 21684746. As to conditions: IP dose of 60 mg/kg; cited from earlier work.
[5] abbreviates: recombinant PfPolδ-cat DNA polymerase activity, activated CT-DNA, 1 h at 37 °C, triplicate, read-out: IC50 PfPolδ-cat.

In brackets after ≈: the same amount, converted by molar mass. Where two headings read alike, the source gives them in different places.

T1 sequence (P30315 whole entry): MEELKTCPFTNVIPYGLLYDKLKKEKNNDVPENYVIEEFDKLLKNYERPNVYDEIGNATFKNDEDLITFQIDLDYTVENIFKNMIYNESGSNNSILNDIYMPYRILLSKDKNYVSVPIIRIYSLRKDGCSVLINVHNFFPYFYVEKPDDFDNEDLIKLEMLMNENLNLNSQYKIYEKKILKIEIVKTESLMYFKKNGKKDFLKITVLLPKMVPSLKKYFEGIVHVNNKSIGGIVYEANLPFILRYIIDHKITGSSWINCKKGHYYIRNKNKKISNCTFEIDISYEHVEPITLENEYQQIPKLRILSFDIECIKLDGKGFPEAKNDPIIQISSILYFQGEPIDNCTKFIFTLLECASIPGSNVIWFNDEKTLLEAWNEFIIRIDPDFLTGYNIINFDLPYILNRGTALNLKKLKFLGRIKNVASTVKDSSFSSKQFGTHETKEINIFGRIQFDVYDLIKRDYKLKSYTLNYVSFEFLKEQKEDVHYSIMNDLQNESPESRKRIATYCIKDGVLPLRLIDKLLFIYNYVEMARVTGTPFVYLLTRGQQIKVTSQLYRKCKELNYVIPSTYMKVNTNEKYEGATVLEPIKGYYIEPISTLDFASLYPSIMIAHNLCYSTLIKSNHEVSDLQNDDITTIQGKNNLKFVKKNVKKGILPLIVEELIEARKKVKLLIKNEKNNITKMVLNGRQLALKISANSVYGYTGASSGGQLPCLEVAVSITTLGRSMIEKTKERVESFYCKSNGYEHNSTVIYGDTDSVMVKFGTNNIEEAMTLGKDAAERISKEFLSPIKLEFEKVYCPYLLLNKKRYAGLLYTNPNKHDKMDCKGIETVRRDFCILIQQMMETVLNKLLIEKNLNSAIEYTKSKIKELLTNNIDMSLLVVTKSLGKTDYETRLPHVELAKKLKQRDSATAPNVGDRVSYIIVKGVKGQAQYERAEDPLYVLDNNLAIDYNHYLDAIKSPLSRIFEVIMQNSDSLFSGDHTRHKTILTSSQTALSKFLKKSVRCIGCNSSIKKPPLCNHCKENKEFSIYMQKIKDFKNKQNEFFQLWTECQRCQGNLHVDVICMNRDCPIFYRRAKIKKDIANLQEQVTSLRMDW

In general, IC50 refers to the concentration that inhibits the measured activity by half. On to `Nc1nc(Cl)cc(Nc2ccc(Cl)c(Cl)c2)n1` [2-amino-4-chloro-6-(3′,4′-dichloroanilino)pyrimidine], for which the values for the half-inhibitory concentration (IC50) in assay [1] (setting [5]) and in assay [2] (Plasmodium falciparum) were 104 ± 5.6 µM and 3.8 ± 0.3 µM, respectively.

Consider `Nc1nc(Cl)cc(Nc2cc(Cl)cc(Cl)c2)n1` [2-amino-4-chloro-6-(3′, 5′-dichloroanilino)pyrimidine], for which the 50% inhibitory concentration (IC50) is 185 ± 7.7 µM in assay [1] (setting [5]) and 34.4 ± 0.4 µM in assay [2] (Plasmodium falciparum).

As a reminder, the MIC is the smallest concentration in the dilution series that meets the test's criterion for growth inhibition. `CC(=O)OCCCCCn1cnc2nc(NCc3ccc(Cl)c(Cl)c3)[nH]c(=O)c21` [7-acetoxypentyl-DCBG, 7-acetoxypentyl-(3,4-dichlorobenzyl)guanine]: the values for the concentration for half-maximal inhibition (IC50) in assay [1] (setting [5]) and in assay [2] were 55 ± 3.4 µM and 4.1 ± 0.2 µM, respectively. The minimal inhibitory concentration (MIC) in assay [3] was 1.25 µg/mL (≈ 2.85 µM). Moreover, the “mice survived after treatment” value in assay [4] was 80%.

As to `Nc1nc2c(ncn2COCCOP(=O)(O)OP(=O)(O)OP(=O)(O)O)c(=O)[nH]1` [Acyclovir triphosphate], 347 ± 8.3 µM corresponded to half-maximal inhibition in assay [2] (Plasmodium falciparum) (IC50).

With `CCCCc1ccc(Nc2nc3c(ncn3C3CC(O)C(COP(=O)(O)OP(=O)(O)C(=O)P(=O)(O)O)O3)c(=O)[nH]2)cc1` (centres unmarked) [BuPdGMPPCOP, N^2-(4-butylphenyl)-2′-deoxyguanosine 5′-(P^2,P^3-carbonyltriphosphonate)], in assay [1] (recombinant PfPolδ-cat DNA polymerase activity, 100 μM compound), the “IC50 PfPolδ-cat (Inactive = <20 % inhibition at 100 μM)” value is given as “Inactive^a”. Further, the IC50 in assay [2] amounted to 173 ± 2.7 µM.

For `CCCCc1ccc(Nc2nc3c(ncn3[C@H]3C[C@H](O)[C@@H](COP(=O)(O)OP(=O)(O)OP(=O)(O)O)O3)c(=O)[nH]2)cc1` [BuPdGTP, N^2-(4-butylphenyl)-2′-deoxyguanosine 5′-triphosphate], the half-inhibitory concentration (IC50) in assay [1] (setting [5]) worked out at 38 ± 1.7 µM; in assay [2] (Plasmodium falciparum), 85.6 ± 3.7 µM.

Regarding `O=c1[nH]c(NCc2ccc(Cl)c(Cl)c2)nc2nc[nH]c12` [DCBG, N^2-(3,4-dichlorobenzyl)guanine], in assay [2] (Plasmodium falciparum), the half-inhibitory concentration (IC50) was determined as 8.8 ± 0.5 µM.

In assay [2] (Plasmodium falciparum), `CCCCCCNc1nc2c(ncn2[C@H]2C[C@H](O)[C@@H](COP(=O)(O)OP(=O)(O)OP(=O)(O)O)O2)c(=O)[nH]1` [HexdGTP, N^2-hexyl-2′-deoxyguanosine 5′-triphosphate] came in with a half-maximal inhibitory concentration (IC50) of 86.4 ± 0.2 µM.

`O=c1[nH]c(NCc2ccc(Cl)c(F)c2)nc2nc[nH]c12` [N^2-(3-fluoro,4-chlorobenzyl)guanine] had an IC50 in assay [2] (Plasmodium falciparum) of 7.4 ± 0.3 µM.

For the molecule `C[C@@]1(CO)[C@H](O)CC[C@@]2(C)[C@H]1CC[C@H]1C[C@@H]3C[C@@]12CC[C@]3(O)CO` [aphidicolin, reference compound], the half-inhibitory concentration (IC50) in assay [1] came to 11.8 µM.

The record behind these values is article PMC4766629, “Biochemical and functional characterization of Plasmodium falciparum DNA polymerase δ” (Malaria Journal, 2016).
